One sequence from patent US20250042968A1, “EPHRIN LIGAND MIMETIC PEPTIDES FOR THE TREATMENT OF NEURODEGENERATIVE DISEASES” (University of Miami, priority 2022, published 2025) can be followed below.

Experiment [1] relates to ARHGEF15 (Ephexin-5). Briefly: Western blot of ARHGEF15 in mRGCs. The settings on record: 500 nM. Format: cell-based, mouse. Here is the method: On day 4, cells were treated with pre-clustered recombinant mouse EfnA5-His ligand [(+) Control, using anti-His_Tag antibody for 30 minutes] for 2 hours. Cells were then lysed in RIPA buffer containing protease and phosphatase inhibitor cocktails and maintained on ice. Protein was quantified using a BCA assay, and 10 μg of total protein was run on a TGX stain-free Any kD gel (BioRad) and transferred using the trans-blot turbo system (BioRad). Following transfer and blocking in 5% nonfat milk for 1 h, blots were probed with antibodies against RhoA, phosphorylated Rac1, ARHGEF15, Ephexin-1, or beta-actin as an endogenous loading control overnight at 4° C. Blots were then washed 3×5 min in PBS-T and incubated in the appropriate HRP-conjugated secondary antibody for 2 h at room temperature. Blots were imaged using chemiluminescent ECL substrate (Pierce) on a BioRad ChemiDoc MP imaging system and software.

The target in experiment [2] is T1, EphB2 (Mus musculus, UniProt P54763).
T1 construct: endogenous in cells; host or cells: primary mouse retinal ganglion cells
T1 sequence (P54763 19-986): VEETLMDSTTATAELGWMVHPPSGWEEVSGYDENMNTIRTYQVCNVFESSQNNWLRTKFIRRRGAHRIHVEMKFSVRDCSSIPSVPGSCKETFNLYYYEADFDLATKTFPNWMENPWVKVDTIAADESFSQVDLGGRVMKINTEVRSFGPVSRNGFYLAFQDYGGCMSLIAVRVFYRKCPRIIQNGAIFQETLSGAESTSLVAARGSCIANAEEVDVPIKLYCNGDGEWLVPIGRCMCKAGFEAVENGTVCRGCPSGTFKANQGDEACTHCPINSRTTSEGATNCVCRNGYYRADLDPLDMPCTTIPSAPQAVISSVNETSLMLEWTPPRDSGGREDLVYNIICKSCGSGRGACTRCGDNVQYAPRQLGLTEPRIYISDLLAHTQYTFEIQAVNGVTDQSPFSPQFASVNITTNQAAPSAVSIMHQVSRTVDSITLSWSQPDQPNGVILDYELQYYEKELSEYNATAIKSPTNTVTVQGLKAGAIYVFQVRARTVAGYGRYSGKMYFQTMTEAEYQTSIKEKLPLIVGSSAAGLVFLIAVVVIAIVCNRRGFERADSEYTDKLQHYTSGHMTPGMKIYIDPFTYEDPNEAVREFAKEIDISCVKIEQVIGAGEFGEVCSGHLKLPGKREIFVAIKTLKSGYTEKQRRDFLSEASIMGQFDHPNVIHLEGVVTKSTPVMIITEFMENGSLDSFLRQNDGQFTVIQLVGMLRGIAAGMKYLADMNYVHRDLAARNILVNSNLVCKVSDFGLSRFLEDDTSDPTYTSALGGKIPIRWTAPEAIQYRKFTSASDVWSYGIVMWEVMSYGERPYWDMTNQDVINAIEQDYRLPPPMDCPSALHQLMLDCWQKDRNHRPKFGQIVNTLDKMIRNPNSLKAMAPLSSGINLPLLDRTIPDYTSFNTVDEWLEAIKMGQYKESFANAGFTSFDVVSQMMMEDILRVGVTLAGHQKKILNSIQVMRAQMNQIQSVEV
Briefly: Western blot of EphB2 expression in isolated mouse RGCs. The settings on record: 1 μM, 4 days. Format: cell-based. From the text:
(§1) In order to assess the effect of xEFN peptide supplementation on Eph-receptor modulation, various in vitro assays were employed on isolated mouse RGCs. […] Similarly, xEFN_RBD1, and 3 inhibited the phosphorylation of Rac1 by pre-clustered ephirnA5 ligand stimulation. […] TUBB3 is a marker specific for neuronal microtubules and functions as a neuronal-specific marker.

Experiment [3] deals with isolated mouse RGCs. Briefly: Neurite outgrowth, long-term (6 days), Incucyte Zoom live cell imaging. In kind it is cell-based. Here is the method: Mouse retinal ganglion cells (RGC): Mouse R GCs were isolated as follows. […] Following dissociation, macrophage and endothelial cells were removed from the cell suspension by panning with the anti-macrophage antiserum (Accurate Chemical, Westbury, NY). Finally, RGCs were immunopanned in plates containing the antibody against Thy1.2 and were then released by incubation with trypsin solution. RGCs were grown on poly-L-lysine coated plates in serum-free Neurobasal media (Invitrogen, Carlsbad, CA), supplemented with B-27 supplement, CNTF (10 ng/ml), and BDNF (10 ng/ml).
(§2) mRGCs were used to analyze dendrite sprouting, axonal polarization and extension, and ephrin receptor phosphorylation following treatment with xEFN peptides. RGCs were isolated as described above and plated onto 24 well plates at a concentration of 4×10^4 cells/well for short-term (48 h) experiments, or into 96-well plates at a concentration of 1,000 cells/well for long-term (6 days) experiments in an Incucyte Zoom (Essen Biosciences) instrument for live cell imaging. […] For the short-tem experiment, cells were fixed in 4% paraformaldehyde for 5 minutes, permeabilized using 0.05% Triton X-100, blocked with 5% fetal bovine serum, and incubated with primary antibody against Tubulin Beta 3 Class III (TUBB3) overnight at 4° C. Cells were then washed 3×5 min with PBS and incubated with AlexaFluor488 secondary antibody for 2 h at room temperature. Cells were mounted using SlowFade Gold Antifade mounting media with DAPI (ThermoFisher) and imaged using an EVOS FL automated fluorescent microscope (ThermoFisher). Dendrite measurements and analysis was performed by a blinded investigator using ImageJ software and the Sholl analysis plugin. […] Neurite sprouting and extension were quantified using the automated Incucyte Zoom NeuroTrack Processing algorithm for real-time, label-free neurite segmentation and quantitation (FIG. 13).

For experiment [4], the system named is isolated mouse RGCs. Briefly: Neurite sprouting and extension assay, short-term (48 h). Format: cell-based. As for the experimental part: Mouse retinal ganglion cells (RGC): Mouse R GCs were isolated as follows. Briefly, retinas from postnatal day 8-10 (p8-10) mouse pups were dissected and digested using a papain solution (16.5 U/mL) for 30 minutes at 37° C. Following dissociation, macrophage and endothelial cells were removed from the cell suspension by panning with the anti-macrophage antiserum (Accurate Chemical, Westbury, NY). Finally, RGCs were immunopanned in plates containing the antibody against Thy1.2 and were then released by incubation with trypsin solution. RGCs were grown on poly-L-lysine coated plates in serum-free Neurobasal media (Invitrogen, Carlsbad, CA), supplemented with B-27 supplement, CNTF (10 ng/ml), and BDNF (10 ng/ml).
as §2

Experiment [5] has as its target T2, EphA2 (Mus musculus, UniProt Q03145).
T2 construct: endogenous in cells; host or cells: primary mouse retinal ganglion cells (p8-10 pups)
Briefly: Western blot of EphA2 expression in isolated mouse RGCs. Format: cell-based. The settings on record: 1 μM, 4 days.
Text: as §1

[6] abbreviates: supplemented RGC cultures, 48 h.

“Also recorded” adds a separate entry of the source.

T2 sequence (Q03145 26-977): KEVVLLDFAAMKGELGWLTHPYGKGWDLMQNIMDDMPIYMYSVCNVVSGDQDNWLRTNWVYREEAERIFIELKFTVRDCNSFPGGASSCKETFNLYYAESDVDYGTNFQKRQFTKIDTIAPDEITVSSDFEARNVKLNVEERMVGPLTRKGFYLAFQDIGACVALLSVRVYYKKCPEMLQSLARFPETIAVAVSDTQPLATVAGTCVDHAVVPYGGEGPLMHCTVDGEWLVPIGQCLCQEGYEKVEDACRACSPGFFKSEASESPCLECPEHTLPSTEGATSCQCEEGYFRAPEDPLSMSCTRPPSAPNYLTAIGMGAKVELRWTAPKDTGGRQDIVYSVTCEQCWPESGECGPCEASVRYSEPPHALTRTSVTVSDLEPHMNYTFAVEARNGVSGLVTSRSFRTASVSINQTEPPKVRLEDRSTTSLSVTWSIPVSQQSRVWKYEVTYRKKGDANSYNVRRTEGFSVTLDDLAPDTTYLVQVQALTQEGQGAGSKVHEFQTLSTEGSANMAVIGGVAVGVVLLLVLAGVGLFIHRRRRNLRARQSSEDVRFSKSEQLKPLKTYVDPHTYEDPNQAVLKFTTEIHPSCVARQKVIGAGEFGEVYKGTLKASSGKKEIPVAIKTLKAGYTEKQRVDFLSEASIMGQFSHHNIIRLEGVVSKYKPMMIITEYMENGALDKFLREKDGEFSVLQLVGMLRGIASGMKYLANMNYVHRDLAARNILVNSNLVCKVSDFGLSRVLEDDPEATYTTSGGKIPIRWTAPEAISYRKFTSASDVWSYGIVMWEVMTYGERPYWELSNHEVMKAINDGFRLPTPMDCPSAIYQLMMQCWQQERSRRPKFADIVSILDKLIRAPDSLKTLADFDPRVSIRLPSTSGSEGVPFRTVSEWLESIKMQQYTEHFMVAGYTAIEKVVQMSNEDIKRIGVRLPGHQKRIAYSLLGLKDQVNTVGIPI

Regarding FTIKFQEFSPNLWGL [xEFN_RBD3], the “ARHGEF15 (Ephexin-5) level” value in experiment [1] is “decrease”. In experiment [2], the “expression of EphB2 (western blot)” value is on record as “reduced expression; also recorded: effectively decreased expression”. For the same sequence, the “neurite outgrowth compared to 1 μM xEFN_F1 peptide” value in experiment [3] (1 μM, 6-day period) was “significantly increased”. The “neurite length over control cultures” value in experiment [3] (1 μM, after 32 hours of culture) was “statistically-significant increase”. In experiment [3] (1 μM, end of 6-day period), the “increase in overall neurite length over day 0 measurement” value is given as 424.68+/−4.47%. Further, the “neurite outgrowth compared to EphB2- or EphB4-restricted targeting peptides SNEW and TYFD” value in experiment [3] (equal concentrations) is on record as “statistically significant increase”. Moreover, in experiment [4] (500 nM, 48 h of culture, compared to vehicle (PBS) treated controls), the average axonal length was 302.16+/−40.24%. Besides, in experiment [4] (isolated RGCs), the axonal extension result was “significantly increases”, the dendritic arbor complexity result was “significantly increases” and the neurite sprouting entry was “significantly increases”. Moreover, in experiment [4] (setting [6]), the “average neurites/RGC soma” value was 3.43+/−0.16 neurites/RGC and the “median total neurite length” value was 1034.68 (range: 486.26-2759.84) μm/cell. For the same sequence, the “expression of EphA2 (western blot)” value in experiment [5] is reported as “reduced expression; also recorded: effectively decreased expression”.
